For assay [1], the system named is M481, M487 and M610 melanoma cells carrying BRAF V600E mutations. It counts as in vivo, NSG mice.
Protocol: M481, M487 and M610 melanoma cells carrying BRAF V600E mutations were implanted in s.c. tissue on right flanks of NSG mice. When tumors became palpable, mice were randomized to four different treatments. […] Control mice received vehicle only (200 μl 0.5% promethylcellulose, 0.2% Tween80 and 5% DMSO per day). Tumors were measured every 2-3 days with calipers.
In these experiments metastatic melanoma cells were injected subcutaneously in the right flanks of immunocompromised NSG mice. When tumors became palpable, mice were randomized to four different treatments. […] Control mice received vehicle only (200 μl 0.5% promethylcellulose, 0.2% Tween80 and 5% DMSO per day). Tumors were measured every 2-3 days with calipers.
The subject of assay [2] is M481 metastatic melanoma cells. The experiment in a line: M481 melanoma xenograft tumor growth in NSG mice (i.p. agents, PLX 4720 chow). The class given is in vivo.
Protocol: M481 metastatic melanoma cells were implanted in s.c. tissue on right flanks of NSG mice. […] For PLX4720 treatment mice were switched to either a chow diet containing 417 mg/kg PLX4720 or the control chow containing no compound. Tumors were measured every 2-3 day with calipers. Mean±SD is reported (* P<0.05, *** P<0.0005, ns: not significant; two-tailed Student's t test). FIG. 1B, Representative bioluminescence images of melanomas at day 14.
M481 metastatic melanoma cells were implanted in s.c. tissue on right flanks of NSG mice. When tumors became palpable mice were i.p. injected with RO 31-8220 (3 mg/kg) or DMSO. […] Tumors were measured every 2-3 day with calipers. […]
M481 metastatic melanoma cells were implanted in s.c. tissue on right flanks of NSG mice. […] Tumors were measured every 2-3 day with calipers. […]
Transplanting melanoma cells. After sorting, cells were counted and resuspended in staining medium (L15 medium containing 1 mg/ml BSA, 1% penicillin/streptomycin and 10 mM HEPES [pH7.4]) with 25% high protein Matrigel (product 354248; BD Biosciences). […]
Bioluminescence imaging (BLI). Mice were injected with 100 luciferase-GFP+ cells on the right flank and monitored until tumor diameters approached 20 mm, at which point they were imaged along with an uninjected control mouse on an IVIS Imaging System 200 Series (Calliper Life Sciences) using Living Image software. […]
The test system of another assay is PKGα. To be noted: cited from earlier work.
The next assay addresses MSK1 (Homo sapiens, UniProt O75582). To be noted: cited from earlier work.
A further assay relates to JNK. To be noted: rat adipocytes and L6 myotubes; cited from earlier work.
A further assay deals with glycogen synthase. To be noted: rat adipocytes and L6 myotubes; cited from earlier work.
Another assay relates to MAPK. To be noted: rat adipocytes and L6 myotubes; cited from earlier work.
The test system of a further assay is ERK2. To be noted: rat adipocytes and L6 myotubes; cited from earlier work.

Read-outs that look alike come from different tables or passages of the source.

MSK1, sequence (O75582 whole entry, species assumed): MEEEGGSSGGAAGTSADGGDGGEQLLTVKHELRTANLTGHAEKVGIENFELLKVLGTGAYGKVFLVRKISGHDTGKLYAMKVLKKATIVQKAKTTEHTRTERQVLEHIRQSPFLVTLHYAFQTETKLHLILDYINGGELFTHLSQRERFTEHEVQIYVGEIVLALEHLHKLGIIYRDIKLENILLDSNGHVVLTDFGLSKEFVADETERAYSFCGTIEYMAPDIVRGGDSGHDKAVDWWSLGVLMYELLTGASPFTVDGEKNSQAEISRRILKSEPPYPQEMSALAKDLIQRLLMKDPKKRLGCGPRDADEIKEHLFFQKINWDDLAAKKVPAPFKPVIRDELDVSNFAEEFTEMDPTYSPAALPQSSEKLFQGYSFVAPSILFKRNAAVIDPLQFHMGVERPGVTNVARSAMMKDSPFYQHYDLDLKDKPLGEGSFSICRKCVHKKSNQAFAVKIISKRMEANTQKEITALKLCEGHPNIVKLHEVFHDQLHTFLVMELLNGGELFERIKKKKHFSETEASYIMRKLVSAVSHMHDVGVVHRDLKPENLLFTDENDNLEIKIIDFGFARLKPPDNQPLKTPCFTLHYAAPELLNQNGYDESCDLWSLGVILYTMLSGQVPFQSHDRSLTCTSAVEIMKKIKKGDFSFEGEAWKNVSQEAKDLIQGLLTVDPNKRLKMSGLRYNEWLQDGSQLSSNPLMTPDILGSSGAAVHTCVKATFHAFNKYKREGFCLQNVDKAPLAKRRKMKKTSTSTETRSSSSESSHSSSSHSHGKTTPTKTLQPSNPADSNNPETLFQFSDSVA

Consider `CCCS(=O)(=O)Nc1ccc(F)c(C(=O)c2c[nH]c3ncc(Cl)cc23)c1F` [PLX 4720], for which, in assay [1] (PLX4720 20 mg/kg/day by oral gavage alone), the “growth of human melanoma xenografts” value is “slowed the growth”.

As usually defined, the IC50 is the concentration that gives 50% inhibition. In the case of `Cn1cc(C2=C(c3cn(CCCSC(=N)N)c4ccccc34)C(=O)NC2=O)c2ccccc21` [RO 31-8220], the “in vivo tumor growth” value in assay [2] (RO 31-8220 3 mg/kg i.p. alone) was “inhibited the growth of a melanoma as well as the BRAF inhibitor (PLX 4720)”. The IC50 was 33 nM in the assay with PKGα and 8 nM on MSK1. For the same molecule, the “effect on JNK” value in the assay on JNK is “Activates”. In the assay on glycogen synthase, the “effect on glycogen synthase” value was “Activates”. The “effect on MAPK” value in the assay with MAPK is on record as “inhibits”. In the assay on ERK2, the “effect on ERK2” value is on record as “inhibits”.

For `C[C@H]1O[C@@H](O[C@H]2[C@@H](O)C[C@H](O[C@H]3[C@@H](O)C[C@H](O[C@H]4CC[C@@]5(C)[C@H](CC[C@@H]6[C@@H]5CC[C@]5(C)[C@@H](C7=CC(=O)OC7)CC[C@]65O)C4)O[C@@H]3C)O[C@@H]2C)C[C@H](O)[C@@H]1O` [digitoxin], the “in vivo tumor growth” value in assay [2] (digitoxin 0.5 mg/kg i.p. alone, s.c. xenograft, calipers every 2-3 day) is reported as “inhibited the growth of a melanoma better than BRAF inhibitor (PLX 4720)”. Further, the “growth of human melanoma xenografts” value in assay [1] (digitoxin 0.5 mg/kg/day by oral gavage alone) is “slowed the growth”.

Source of the values: patent US9561245B2, “Combination treatments for melanoma” (priority 2012, dated 2017).
